Laboratory results published in patent US12497359B2, “Acrylamide derivatives” (NRG Therapeutics Ltd, priority 2020, dated 2025).
In brackets after ≈: the same amount, converted by molar mass.

Key:
PBS solubility = type: physicochemical; conditions: aqueous buffer, kinetic from dmso stock; PBS pH 7.4, 2 hr at 25° C.
Method in brief: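 Compound from 10 mM DMSO stock was added in duplicate to FaSSIF or PBS (pH 7.4) and shaken at 1100 rpm for 2 hr at 25 °C. After filtration, the filtrate was quantified by LC-MS/MS with internal standard against a standard of known concentration.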

[1] = Hepatocyte clearance assay, rat; type: in vitro ADME; conditions: cryopreserved primary rat hepatocytes, average value from two experiments, read-out: Rat heps intrinsic clearance (CLint)
Method in brief: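 Cryopreserved rat or human hepatocytes at 0.5×10^6 viable cells/mL in L-15 medium, compound incubated at 37° C. with sampling to 120 min, in duplicate; parent remaining by LC/MS/MS. Half-life from ln(% remaining) vs time slope; CLint (μL/min/1×10^6 cells) = kV/N, V 0.2 mL, N 0.1×10^6 cells.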

mPTP = mPTP activity assay in isolated rat liver mitochondria (Ca2+ retention, Fluo5N, FLIPR); type: biochemical; conditions: for mPTP Rat liver pIC50*: isolated rat liver mitochondria, average value from multiple experiments (n ≥ 2)
Method in brief: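 Freshly isolated female Sprague Dawley rat liver mitochondria in pH 7.4 buffer with 10 mM succinate, 1 μM rotenone and 2 μM Fluo5N, preincubated 10 min at RT with compound (30 μM to 1 nM). CaCl2 bolus (75 μM) added; IC50 from 10 min fluorescence, normalised to DMSO and 5 μM cyclosporin A.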

SMILES | solubility at 2 h (PBS solubility) | hepatocyte CLint at 1 µM [1] | activity in the rat liver mitochondria assay (mPTP; comparison among Example compounds, in words) | mPTP Rat liver pIC50* (mPTP)
C[C@H]1Cc2ccccc2[C@@H]1NC(=O)/C=C/c1ccc2cn[nH]c2c1 (single isomer, unassigned) [Example 14c] | 0.6 µM (≈ 0.19 µg/mL) | 48 µL/min/1e6 cells | highest activity | 7.9
C[C@@H]1COc2ccccc2[C@@H]1NC(=O)/C=C/c1ccc2cn[nH]c2c1 (single isomer, unassigned) [Example 15d, (E)-3-(1H-indazol-6-yl)-N-(3-methylchroman-4-yl)acrylamide] | 2 µM (≈ 0.667 µg/mL) |  |  | 7.6
O=C(/C=C/c1ccc2cn[nH]c2c1)N[C@@H]1CCc2ccccc21 [Example 3, (R,E)-N-(2,3-dihydro-1H-inden-1-yl)-3-(1H-indazol-6-yl)acrylamide] | 2.2 µM (≈ 0.667 µg/mL) | 28 µL/min/1e6 cells |  | 7.2
COCc1ccccc1NC(=O)/C=C/c1ccc2cn[nH]c2c1 [Example 29, (E)-3-(1H-indazol-6-yl)-N-(2-(methoxymethyl)phenyl)acrylamide] | 29 µM (≈ 8.91 µg/mL) | 10 µL/min/1e6 cells |  | 7.1
